Measured values published in US20240199676A1, “ANTIVIRAL COMPOUNDS AND METHODS OF MAKING AND USING THE SAME” (Gilead Sciences, Inc., priority 2022, published 2024).

How the values were obtained:
[1] = tested on: Respiratory syncytial virus recombinant with luciferase (RSV-Luc5) in HEp-2 cells; test: HEp-2 RSV-Luc5 384-well Assay (EC50 RSVFLUC Hep2-384, Ex. R); format: cell-based; conditions: human respiratory syncytial virus, HEp-2, 72 h, read-out: RSV Hep-2 FLuc EC50 (per Ex. R)
Excerpt: Example R. HEp-2 RSV-Luc5 384-well Assay (EC50 RSVFLUC Hep2-384)
HEp-2 cell line was purchased from ATCC (Manassas, VA Cat #CCL-23) and maintained in Dulbecco's […] (DMEM) (Corning, New York, NY, Cat #15-018CM) supplemented with 10% fetal bovine serum (FBS) (Hyclone, Logan, UT, Cat #SH30071-03) and 1× Penicillin-Streptonycin-L-Glutamine (Corning, New York, NY, Cat #30-009-CI). Cells were passaged 2 times per week to maintain sub-confluent densities and were used for experiments at passage 5-20. Respiratory syncytial virus recombinant with luciferase (RSV-Luc5) direct pelleted virus (≥1×107 TCID50/ml) was purchased from Microbiologics (Saint Cloud, MN). Viral replication was determined in HEp-2 cells in the following manner.
Compounds are prepared in 384-well polypropylene plates (Greiner, Monroe, NC, Cat#784201) with 8 compounds per plate in grouped replicates of 4 at 10 serially diluted concentrations (1:3).
HEp-2 cells were suspended in DMEM (supplemented with 10% FBS and 1× Penicillin-Streptomycin-L-Glutanine) and 60 uL of 4,000 cells per well were seeded into 384-well plates (Greiner, Monroe, NC, Cat #781080) using Biotek MultiFlo dispenser. […] Viral replication was then assessed by measuring luminescence signal using and Envision plate reader. […]

[2] = GI S9 stability (Ex. Z), dog intestinal S9; format: in vitro ADME; conditions: pooled intestinal S9 fractions; dog intestinal S9, 1.0 mg/mL protein, 2 μM substrate, pH 7.4; read-out: GIS9 DOG T½ (per Ex. Z)
Procedure: Example Z: GI S9 stability data:
Stock solutions of test compounds in dimethyl sulfoxide (DMSO) having a final concentration of 10 mM were prepared and used in all experiments. Sekisui XenoTech (Kansas City, KS) provided pooled intestinal S9 fractions. All other chemicals were purchased from Sigma-Aldrich (St. Louis, MO) or VWR (West Chester, PA). Internal Standard/Quench (IS/Q) used to stop reactions was 100 nM labetalol in (by volume) methanol (10%) and acetonitrile (90%).
Stability in Intestinal S9 Fractions: Duplicate aliquots of test compound or positive control substrate were added to S9 stock diluted with phosphate buffered saline (137 mM NaCl, 2.7 mM KCl, 10 mM phosphate buffer), pH 7.4, to obtain a protein concentration of 1.0 mg/mL. The metabolic reactions were initiated by the addition of the substrates to the S9 reaction mixture to a final concentration of 2 μM. At 0, 10, 20, 30, 60 and 120 min, 25 μL aliquots of the reaction mixture were transferred to plates containing 225 μl of IS/Q solution. After quenching, the plates were centrifuged at 3000×g for 30 minutes. 150 μL aliquots of each supernatant were dried down then reconstituted with 300 μL water. Aliquots (10 μL) of the prepared samples were analyzed on a Thermo Q-Exactive mass spectrometer as described below.
Liquid Chromatography—Mass Spectrometry: Quantification of test compounds and control substrate was performed by analyte/internal standard peak area ratio (PAR) values measured on a Thermo Q-Exactive mass spectrometer coupled to a Dionex UltiMate 3000 HPLC with a Leap Technologies HTC PAL autosampler. The column used for analysis was a Waters Acquity BEH C18 (1.7 μm particle size, 2.1×50 mm). Mobile phase A consisted of 0.1% (v/v) formic acid in water. Mobile phase B consisted of 0.1% (v/v) formic acid in acetonitrile. Elution of analytes was achieved by a series of linear gradients varying the proportions of A and B. The mass spectrometer was calibrated on a weekly basis and mass tolerance of 5 ppm was used.
Metabolic stabilities in S9 fractions were determined by measuring the rates of disappearance of test compound and positive control substrate.
Data (% of substrate remaining) were plotted on a semi-log scale and fitted using an exponential decline model:
Where Ct—% of substrate remaining at time=t; C0—% of substrate remaining at time=0; t—time; T½—half-life The Half-life (T½) is determined by the following equation: […]
Assuming a first-order reaction, the slope (k) is extrapolated from the aforementioned plotted data.

CC(C)C(=O)OC[C@@]1(C#N)O[C@@H](c2ccc3c(N)ncnn23)[C@H](O)[C@@H]1O [Compound 1, ((2R,3S,4R,5S)-5-(4-aminopyrrolo[2,1-f][1,2,4]triazin-7-yl)-2-cyano-3,4-dihydroxytetrahydrofuran-2-yl)methyl isobutyrate]
EC50 [1]: 10.4 µM
half-life at 2 μM [2]: 2.02 h
